# Key:
# [1] = system: MRSA ATCC 43300; assay: Murine tissue cage (foreign-body) infection model, prophylaxis; type: in vivo, Staphylococcus aureus; conditions: C57BL/6 mice, prophylactic treatment
# Method: To evaluate the prophylactic efficacy of 5-FU against MRSA infection, we used our murine model of foreign-body infection, which closely mimics human implant-associated infections. This model of foreign-body infection ([26],[27]) was established with the approval of the Kantonale Veterinaeramt Basel-Stadt, Switzerland (permit no. 1710). Experiments were conducted according to the regulations of Swiss veterinary law and performed in the animal house of the Department of Biomedicine, University Hospital Basel, Switzerland. Healthy wild-type female C57BL/6 mice at 13 weeks of age (JanvierLabs, France) kept under specific pathogen-free conditions (biosafety level 2) were anesthetized, followed by the subcutaneous implantation of sterile cylindrical Teflon tissue cages (8.5 × 1 × 30 mm; volume: 1.9 ml) with 130 regularly spaced holes (Angst + Pfister AG, Zurich, Switzerland). They were housed in a 12 hr light/dark cycle (light from 7 am to 7 pm) in a temperature-controlled room (24°C) with free access to regular mice chow and water. Mice were randomly assigned to experimental groups, which were not involved in previous procedures. The mice were randomized into groups, which were treated as follows: saline (untreated growth control; n = 7), saline with 5.2844 mg/kg DPD (n = 4), 50 mg/kg daptomycin (DAP) (Novartis, Basel, Switzerland) (n = 11), 10 mg/kg 5-FU with and without 50 mg/kg DAP (each n = 8), 40 mg/kg 5-FU with or without 50 mg/kg DAP (n = 16 and n = 13, respectively), 40 mg/kg 5-FU with 1 μM DPD (n = 6), or 40 mg/kg 5-FU with 50 mg/kg DAP and 5.2844 mg/kg DPD (n = 8). DAP was given intraperitoneally immediately before implantation, and 5-FU and DPD was given immediately after implantation directly into the lumen of the cage. Afterwards, the cages were infected with 965 CFU of MRSA 43300. At 2 days post-infection, tissue cage fluid was collected, and the planktonic bacterial load was evaluated by plating on blood agar plates. In additional, mice were sacrificed and the tissue cages were explanted under aseptic conditions. The explanted tissue cages were washed twice with phosphate-buffered saline followed by 30 s vortexing, sonication for 3 min at 130 W and another 30 s vortexing to release adherent bacteria from the biofilm. Quantification of adherent bacteria was performed by plating appropriated dilutions on blood agar plates. To determine the prevention rate, the presence of any re-growth of MRSA was examined by further incubation of the cage in tryptic soy broth (TSB) for 48 h at 37°C. MRSA re-growth represents therapy failure, and the prevention rate was defined as the percentage of cages without growth in each treatment group.
# Figure 6. Prophylactic effect of 5-FU against MRSA ATCC 43300 in a murine tissue cage infection model. Read-outs were obtained two days after infection with 965 CFU/cage and treatment with saline, saline with 1 μM AI-2, 50 mg/kg daptomycin (DAP), 10 mg/kg 5-FU with or without 50 mg/kg DAP, 40 mg/kg 5-FU with or without 50 mg/kg DAP or 40 mg/kg 5-FU with 50 mg/kg DAP and 5.2844 mg/kg DPD, as indicated below the panels. (A) Effect on planktonic MRSA 43300 two days post-infection. (B) Effect on adherent MRSA after explantation and sonication. (C) Prevention rate. Values in (A) and (B) are median ± IQR and those in (C) are % ([…]; **P < 0.001; ****P < 0.0001; ns, not significant). TEXT PRINTED IN THE PICTURE: (C) DAP: prevention rate (%): 18 | (C) DAP + 5-FU (10): prevention rate (%): 75 | (C) DAP + 5-FU (40): prevention rate (%): 94 | (C) DAP + 5-FU (40) + DPD: prevention rate (%): 12.5 DOUBTS OF THE COPYIST ABOUT THIS PICTURE: Panel C, DAP, prevention rate: 18 or 16 (small print) / Panel C, DAP + 5-FU (10), prevention rate: 75 or 76 (small print) / Panel C: which treatment belongs to each bar was read from the small +/- grid under the plot, so the column alignment is not fully certain
# [2] = system: SE 1457 wild type; assay: AI-2 activity of SE 1457 wild type; type: cell-based, Staphylococcus epidermidis; conditions: 3 h, increasing 5-FU concentrations
# Method: To confirm that the phenotype could be restored, 1 μM synthetic (S)-4,5-dihydroxy-2,3-pentanedione (DPD) (Biosynth Carbosynth, Staad, Switzerland) was used. After 3 h under static conditions at 37°C, the supernatant was analysed for AI-2 activity with V. harveyi (MM32).
# Supplementary Figure 4 | Bioactivity of 5-FU against Staphylococcus epidermidis (SE). a) Quorum-sensing-associated AI-2 activity of SE 1457 grown for 3 h in the presence of different 5-FU concentrations (note log scale). b) Reversing effect of 1 µM DPD on the AI-2-reducing action of 5-FU (dashed line indicates AI-2 baseline of SE 1457 without 5-FU). Values represent 3 biological replicates expressed as mean ± SD (*, p < 0.05; **, p < 0.01).
# [3] = system: E. coli; assay: E. coli quorum sensing / AI-2 activity in supernatant; type: cell-based, Escherichia coli; conditions: Supplementary Figure S3
# Method: The test strain E. coli RP437 was grown overnight in LB. Its optical density was measured on a Novaspec II photometer (Pharmacia, Freiburg, Germany) and the culture was diluted to a final OD600 of 0.1 the next morning. The bacteria were challenged with test compounds for 3 h, and then AI-2 activity in the culture supernatant was determined. Specifically, 90 μl of the AI-2 reporter strain V. harveyi (MM32), grown overnight in LM medium and then prediluted 1:500 in AB-medium containing 30 μg/ml kanamycin, was added to 10 μl of E. coli supernatant (10% v/v) in black-bottomed Fluotrac 200 96-well plates (Greiner Bio-One, Frickenhausen, Germany), which were shaken at 200 rpm, at 30°C. The AI-2 induced bioluminescence of MM32 was measured after 5 h. […]
# Supplementary Figure 3 | Effect of hit candidates on Escherichia coli. […] AI-2-secreting E. coli (XL10-Gold) was grown for 3 h and AI-2 activity in the supernatant was quantified. […] Optical density (OD600) was measured after 24 h as a measure of cell growth. […] Then, planktonic cell growth (OD600) was measured and biofilm formation was quantified by means of crystal violet staining. (d) AI-2-secreting E. coli (RP437) was grown for 3 h in the presence of different compounds (10 µM), and then AI-2 activity in the supernatant was quantified. Optical density (OD600) was measured after 24 h.
smiles,measurement,setting,value
O=c1[nH]cc(F)c(=O)[nH]1 [5-Fluorouracil],Effect on biofilm / adherent MRSA,[1]; explanted cages 2 days post-infection,neither 5-FU nor DAP alone was sufficient to contain the infection
same,Effect on planktonic MRSA infection,[1]; tissue cage fluid 2 days post-infection,failed to clear planktonic MRSA infections
same,AI-2 activity of SE 1457,[2],reduced AI-2 activity dose-dependently
same,Effect on E. coli quorum sensing,[3],interfered with E. coli quorum sensing
